# Reference: patent US20140080762A1, “HYD1 PEPTIDES FOR RELAPSED CANCER” (H. LEE MOFFITT CANCER CENTER AND RESEARCH INSTITUTE, INC., priority 2011, published 2014)
# Entries after “also recorded” stand apart in the source; their conditions may differ.
# Legend:
# H929-60 cells [1] = experiment: Cross-resistance of H929-60 cells to standard myeloma agents (annexin V FITC/PI, IC50); type: cell-based, human; conditions: 24 hours; p>0.05
# Description: FIG. 19. H929-60 cells are not resistant to standard myeloma therapies. H929 and H929-60 cells were treated with increasing concentrations of melphalan or Velcade for 24 hours. After 24 hours, cells were stained with annexin V FITC/P1 for 45 minutes and acquired on FACScan. IC50 values were determined by linear regressions. […] Shown in the table of FIG. 19 is the mean and standard deviations of three independent experiments.
# H929-60 cells [2] = experiment: HS-5 stroma co-culture model of drug resistance, H929-60 cells; type: cell-based, human
# Description: FIGS. 15A-15C. […] FIG. 15A: H929 and H929-60 pre-incubated with CMFDA dye were adhered to 10,000 HS-5 cells for 2 hours. After 2 hours unadherent cells were removed and the fluorescence intensity was measured on a fluorescent plate reader. FIGS. 15B and 15C: H929 and H929-60 cells were adhered to HS-5 GFP cells for 24 hours. After 24 hours samples were treated with 15 μM melphalan or 16 nM velcade for 24 hours. Cell death was analyzed using a FACScalibur with the GFP expressing HS-5 cells being excluded from the analysis. In FIGS. 15A-15C, a representative of three independent experiments was shown. (*=p<0.05, n=9 or#=p>0.05, n=9 Students t-test).
# The inventors reasoned that acquisition of resistance towards HYD1, which correlated with reduced functional binding to fibronectin, VCAM-1, and HS-5 stromal cells, would likely result in a compromised CAMDR phenotype. To test this premise, the inventors utilized the HS-5 co-culture model of drug resistance. H929 and the HYD1 resistant variant H929-60 cells were treated with either melphalan or velcade in the presence or absence of HS-5/GFP bone marrow stromal cells. As shown in FIGS. 15B and 15C, the HYD1 resistant cell line was not resistant in the co-culture bone marrow stroma model to melphalan or velcade, respectively.
# [3] = test system: epithelial prostate carcinoma cells; conditions: cited from earlier work
# [4] = test system: CD34+ hematopoietic progenitor cells; experiment: Colony forming assay, normal CD34+ hematopoietic progenitor cells; type: cell-based; conditions: HYD1 12.5 and 50 μg/ml for 2 hrs; colonies counted day 12
# Description: (§1) CD34^+ hematopoietic progenitor cells were isolated from peripheral blood and treated for 2 hrs with HYD1 (12.5 and 50 μg/ml) and then plated in a methylcellulose media supplemented with growth factors supporting myeloid and erythroid colonies. Colonies were counted on day 12 post-plating. […] In addition, the inventors evaluated the toxicity of HYD1 in normal peripheral blood mononuclear cells (PBMC).
# [5] = test system: peripheral blood mononuclear cells (PBMC); experiment: Cell death in normal peripheral blood mononuclear cells; type: cell-based; conditions: six hours treatment, up to doses of 50 μg/ml
# Description: as §1
# H929 engrafted tumor = experiment: SCID-hu in vivo model, H929 engrafted tumor; conditions: 8 mg/kg i.p. daily for 21 days
# Description: The SCID-hu model consists of implanting human fetal bone into the mammary mouse fat pad of SCID mice. The myeloma cells are subsequently injected directly into the bone and myeloma cells will engraft only in the area of the human bone. Human paraprotein can be measured in the mouse sera and levels represent a good marker for evaluating tumor burden and response to chemotherapy. Circulating kappa levels were measured on day 28 (baseline reading before peptide treatment), 35, 42 and 49 by ELISA, and tumor burden was determined by calculating the kappa levels on day X divided by the baseline kappa levels recorded on day 28 for each mouse. Shown in FIG. 2A is the antitumor response of H929 engrafted tumor when mice were given 8 mg/kg intraperitoneal (i.p.) injections daily for 21 days starting on day 28. […] Mice were humanely euthanized at […] as several control mice had tumor protruding from the bone implant. […] The inventors anticipate that because HYD1 induces cell death independent of apoptosis and blocks cell adhesion mediated drug resistance to standard therapy that the most dramatic in vivo activity will be realized when combined with standard therapy.
# [6] = molecular target: human CD44 ectodomain (human) (UniProt P16070); experiment: SPR; experiment 12/09
# [7] = molecular target: human CD44 ectodomain (human) (UniProt P16070); experiment: SPR; experiment 12/05
# [8] = molecular target: human CD44 ectodomain (human) (UniProt P16070); experiment: SPR; experiment 11/29
# [9] = molecular target: human CD44 ectodomain (human) (UniProt P16070); experiment: SPR; experiment 12/05 LF
# CD44 = experiment: Biotin-HYD1 pull-down assay (Mass-Spec, Western blot), CD44 in H929 membrane extract; type: binding, human; conditions: NeutrAvidin beads
# Description: The first lane is 30 μg of membrane extract only. CD44 was detected by western blot analysis using a pan-CD44 antibody.
# Samples were spun at 15000 XG for minutes at 4 degrees and the supernatant was removed and membranes were pelleted at 100,000Xg for 15 minutes. Membrane pellets were solubilized in AP buffer containing 0.2% NP40 and protein was quantified using BCA reagents (Pierce, Rockford, Ill.). […] After one hour, the beads were washed twice in AP buffer and 50 ug of membrane extracts were added to a total volume of 500 μl and incubated with beads overnight at 4 degrees. The beads were washed five times in AP buffer containing 0.2% NP40 and samples were suspended in SDS-PAGE sample buffer and bound proteins were resolved by SDSPAGE.
# NeutrAvidin beads were used to reduce non-specific binding. […] The binding experiment was repeated using 300 ug of membrane extract. […] The inventors next determined whether α4 integrin could be detected by western blot analysis. […] To determine whether CD44 was indeed a direct binding partner of CD44 the inventors used recombinant CD44 and an ELISA as a readout of binding. The recombinant CD44 protein (purchased from Abnova) corresponds to Isoform 4 on Swiss Prot. The amino acid sequence is missing 224-266 and 223 is substituted S for T relative to the longest CD44 variant referred to as epican.
# recombinant CD44 = molecular target: T1, recombinant CD44 (Homo sapiens, UniProt P16070); experiment: Direct ELISA, recombinant CD44 binding to immobilized biotin-HYD1; conditions: NeutrAvidin coated 96-well plates
# T1 construct: purchased Abnova
# Description: The pull down assay was directly coupled with an unbiased Mass-Spec analysis to identify HYD1 binding partners. […] NeutrAvidin beads were used to reduce non-specific binding. […] The binding experiment was repeated using 300 ug of membrane extract. […] The inventors next determined whether α4 integrin could be detected by western blot analysis. […] To determine whether CD44 was indeed a direct binding partner of CD44 the inventors used recombinant CD44 and an ELISA as a readout of binding. The recombinant CD44 protein (purchased from Abnova) corresponds to Isoform 4 on Swiss Prot. The amino acid sequence is missing 224-266 and 223 is substituted S for T relative to the longest CD44 variant referred to as epican.
# U226 cells = experiment: Combination cytotoxicity assay with HYD1 in U226 cells; type: cell-based; conditions: in vitro
# Source text: FIG. 8. Table of combination index (CI) summary for combinations of HYD1 and SAHA, etoposide, arsenic, Vel, or doxorubicin in U226 cells.
# H929-60 cells [10] = experiment: FAM-HYD1 binding to cells by FACS, H929-60 cells; type: cell-based, human
# Description: (§2) FIGS. 18A, 18B-1, 18B-2, and 18B-3. […] FIG. 18A: H929 and H929-60 cells (4×10^5 cells/ml) were incubated with FAM-HYD1 (6.25, 12.5 μg/ml) on ice for 15 minutes. FACS analysis was used to determine the geometric mean of fluorescence of FAM-HYD1 bound to H929 and H929-60 cells. A representative of three independent experiments is shown. A student's t-test was performed to determine significance (* denotes p<0.05). FIGS. 18B-1, 18B-2, and 18B-3: When the dose of FAM-HYD1 was increased to 12.5 μg/ml FAM-HYD1 binding to plasma membrane was detected in the resistant cell line as determine by confocal microscopy.
# H929-60 cells [11] = experiment: Confocal microscopy of FAM-HYD1 binding, H929-60 cells; type: cell-based, human; conditions: 12.5 μg/ml FAM-HYD1, confocal microscopy
# Description: as §2
# (§3) To assess whether (a) HYD1 bound the cell surface and (b) whether binding of HYD1 was reduced in the resistant cell line FAM-HYD1 was used to image peptide binding in the parental and resistant cell line by confocal microscopy. A 35 mm glass bottom microwell dishes (Mattek cultureware, Ashland, Mass.) were plated with 10 uL Cell-tak (BD biosciences) per manufacture's instructions. Media containing 1 uM Alexa Fluor 594 wheat germ agglutinin (WGA) (Invitrogen) and 20 uM Hoechst 33342 (Invitrogen) was placed back in the plates and the samples were incubated for 30 minutes. After 30 minutes, the cells were washed and treated with media containing 6.25 μg/ml FAM conjugated HYD1 for 10 minutes. […]
# H929 cells = experiment: Confocal microscopy of FAM-HYD1 binding, H929 cells; type: cell-based, human; conditions: 6.25 μg/ml FAM-HYD1, 10 minutes
# Description: FIGS. 11A-11E. […] FIG. 11B: Loss of mitochondrial membrane […] was determined using DiOC6 staining following 2 hours of HYD1 treatment in H929 and H929-60 (* denotes p<0.05 n=9, Student's t-test). FIG. 11C: ATP levels were determined in the H929 and H929-60 cell lines following 6 hours of HYD1 (50 ug/ml) treatment. (* denotes p<0.05 and # denotes p>0.05, n=9, Student's t-test). FIGS. 11D and 11E: H929 cell (FIG. 11D) and H929-60 cells (FIG. 11E) were stained with Alexa Fluor 594 wheat germ agglutinin (WGA) and Hoechst 33342 for 30 minutes. 6.25 μg/ml FAM-HYD1 was added 10 minutes before images were taken. The experiment was repeated 3 independent times and shown is a representative experiment.
# as §3
# MM cells = experiment: Characterisation of HYD1-induced cell death in MM cells (apoptosis markers, autophagy, NAC protection); type: cell-based
# human CD44 ectodomain (human), sequence (P16070 21-649): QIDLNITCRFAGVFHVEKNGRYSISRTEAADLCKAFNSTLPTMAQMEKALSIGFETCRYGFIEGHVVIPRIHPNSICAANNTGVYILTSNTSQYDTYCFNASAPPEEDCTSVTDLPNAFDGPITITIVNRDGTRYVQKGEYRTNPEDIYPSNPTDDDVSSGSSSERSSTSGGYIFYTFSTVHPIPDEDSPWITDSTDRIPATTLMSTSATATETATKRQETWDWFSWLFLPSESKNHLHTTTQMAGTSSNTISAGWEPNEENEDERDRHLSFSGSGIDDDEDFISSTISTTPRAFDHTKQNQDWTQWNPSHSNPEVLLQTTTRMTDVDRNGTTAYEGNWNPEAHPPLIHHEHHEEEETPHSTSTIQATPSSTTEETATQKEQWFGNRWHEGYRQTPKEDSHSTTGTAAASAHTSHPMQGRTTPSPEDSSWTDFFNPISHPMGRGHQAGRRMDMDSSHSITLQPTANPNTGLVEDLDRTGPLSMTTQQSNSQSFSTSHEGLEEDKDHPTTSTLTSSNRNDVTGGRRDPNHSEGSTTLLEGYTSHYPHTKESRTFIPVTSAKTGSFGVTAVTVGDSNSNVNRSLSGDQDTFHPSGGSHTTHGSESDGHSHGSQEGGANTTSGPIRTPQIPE
# T1 sequence (P16070 21-699 isoform P16070-4): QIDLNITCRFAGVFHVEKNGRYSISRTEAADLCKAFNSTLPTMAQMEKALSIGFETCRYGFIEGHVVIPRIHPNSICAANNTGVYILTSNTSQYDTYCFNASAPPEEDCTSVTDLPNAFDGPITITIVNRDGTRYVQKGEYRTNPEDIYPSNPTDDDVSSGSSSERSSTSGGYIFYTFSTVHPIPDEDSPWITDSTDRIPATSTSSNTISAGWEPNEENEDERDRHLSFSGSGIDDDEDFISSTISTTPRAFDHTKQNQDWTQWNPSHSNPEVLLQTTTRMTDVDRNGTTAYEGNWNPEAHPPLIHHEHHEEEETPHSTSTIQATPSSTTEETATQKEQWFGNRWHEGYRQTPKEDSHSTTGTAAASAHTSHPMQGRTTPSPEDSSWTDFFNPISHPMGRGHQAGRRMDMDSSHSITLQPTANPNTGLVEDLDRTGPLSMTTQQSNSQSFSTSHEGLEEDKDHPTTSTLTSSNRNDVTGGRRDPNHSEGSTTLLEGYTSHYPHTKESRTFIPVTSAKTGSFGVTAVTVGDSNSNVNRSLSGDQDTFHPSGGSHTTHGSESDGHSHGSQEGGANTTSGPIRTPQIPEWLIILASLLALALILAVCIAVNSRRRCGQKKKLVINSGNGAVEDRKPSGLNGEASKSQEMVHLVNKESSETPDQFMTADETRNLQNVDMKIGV
molecule,measurement,setting,value
N[C@@H](Cc1ccc(N(CCCl)CCCl)cc1)C(=O)O [melphalan],"IC50 values, H929-60 compared to parental H929 (cross-resistance)",H929-60 cells [1],not resistant; also recorded: not deemed to be significant
same,"melphalan induced cell death in HS-5 co-culture, H929-60",H929-60 cells [2]; 15 μM melphalan for 24 hours,not resistant
"WIKSMKIVKG (HYD1 variant) [HYD1S, a scrambled derivative of HYD1]","inhibition of cell adhesion to extracellular matrixes (laminin 5, laminin 332, collagen, fibronectin)",[3],not to inhibit cell adhesion
CC[C@@H](C)[C@@H](NC(=O)[C@H](N)CCCCN)C(=O)N[C@H](CCCCN)C(=O)N[C@H](CCSC)C(=O)N[C@@H](C(=O)N[C@@H](C(=O)N[C@H](CO)C(=O)N[C@H](Cc1c[nH]c2ccccc12)C(=O)N[C@H](CCCCN)C(=O)NCC(=O)O)[C@H](C)CC)C(C)C [HYD1],colony formation of normal CD34+ cells,[4],did not inhibit colony formation; also recorded: did not inhibit differentiation or colony formation
same,cell death in PBMC,[5],did not induce cell death; also recorded: not sensitive
same,overt toxicity or weight loss,H929 engrafted tumor,no overt toxicity or weight loss
HYD1,Kd,[6],40.9 nM
same,Kd,[7],22.6 nM
same,Kd,[8],40.2 nM
same,Kd,[9],26.7 nM
O=C(O)CCCC[C@@H]1SC[C@@H]2NC(=O)N[C@@H]21 [biotin],interaction with CD44 (pull-down),CD44,not
same,binding of recombinant CD44 (ELISA),recombinant CD44,relatively no binding
COc1cccc2c1C(=O)c1c(O)c3c(c(O)c1C2=O)C[C@@](O)(C(=O)CO)C[C@@H]3O[C@H]1C[C@H](N)[C@H](O)[C@H](C)O1 [Doxorubicin],synergy in combination with HYD1 (combination index),U226 cells,greatest levels of synergy; also recorded: most synergistic
O=C1c2c(O)ccc(O)c2C(=O)c2c(NCCNCCO)ccc(NCCNCCO)c21 [mitoxantrone],"IC50 values, H929-60 compared to parental H929 (cross-resistance)",H929-60 cells [1],not resistant
FAM-kikmviswkg [FAM-HYD1],reduction in FAM-HYD1 binding relative to the parental cell line,"H929-60 cells [10]; 6.25 ug/ml FAM-HYD1, FACS",2.7 fold
same,"FAM-HYD1 binding to the cell surface, H929-60 compared to H929","H929-60 cells [10]; 6.25, 12.5 μg/ml, on ice 15 minutes",reduced binding; also recorded: decreased FAM-HYD1 binding
same,"FAM-HYD1 binding to plasma membrane, H929-60",H929-60 cells [11],detected
same,"localization of FAM-HYD1, H929",H929 cells,localizes to the plasma membrane
CC(=O)N[C@@H](CS)C(=O)O [N-acetyl-L-cysteine],protection of MM cells from HYD1-induced death,MM cells,partially protects
CC(C)C[C@H](NC(=O)[C@H](Cc1ccccc1)NC(=O)c1cnccn1)B(O)O [Velcade],"IC50 values, H929-60 compared to parental H929 (cross-resistance)",H929-60 cells [1],not resistant; also recorded: not deemed to be significant
same,"velcade induced cell death in HS-5 co-culture, H929-60",H929-60 cells [2]; 16 nM velcade for 24 hours,not resistant
